Test results: patent publication US20070077607A1, “Novel screening method” (priority 2003, published 2007)
Where no end group is shown, it is not given here.

Legend:
Swiss 3T3 fibroblasts = assay: Cell adhesion assay (cell attachment and cell spreading), Swiss 3T3 fibroblasts; type: cell-based, mouse; details: 100 μg/ml RGD peptide
Experimental: To evaluate cell attachment and cell spreading exponentially growing cells were detached from substratum by trypsinisation (0.25% (v/v) trypsin in 5 mM EDTA), collected into medium containing a ˜7% (V/V) final concentration of FCS, washed twice with medium without serum and then plated (2×10^4cells/well) onto FN-coated 96-well plates with and without further immobilisation of tTG. After a maximum of 20-minute incubation (to minimise the effect of any endogenous secreted proteins) at 37° C. in a 5% CO2 atmosphere, cells were fixed in 3.7% (w/v) paraformaldehyde in PBS pH 7.4, permeabilised in 0.1% (v/v) Triton X-100 and stained with May Grunwald and Giemsa stain (Jones et al 1997, Verderio et al. 2000). In some cases cells were pre-treated for 15 hours with 1 mM cycloheximide before plating to rule out any effects of endogenous secreted adhesion molecules. Digital images of three non-overlapping fields covering the central portion of each well was captured using a video digital camera (Olympus DP10) and examined using the Image Analysis programme Scion Image (National Institute of Health, USA). […] The number of cell particles in each field was measured by thresholding and particle analysis setting a minimum particle size of 50 pixels. Spread cells were analysed and quantified by “density slicing” and particle analysis. […]

HOB cells [1] = assay: Cell adhesion assay (cell attachment and cell spreading), HOB cells; type: cell-based, human
Experimental: To evaluate cell attachment and cell spreading exponentially growing cells were detached from substratum by trypsinisation (0.25% (v/v) trypsin in 5 mM EDTA), collected into medium containing a ˜7% (V/V) final concentration of FCS, washed twice with medium without serum and then plated (2×10^4cells/well) onto FN-coated 96-well plates with and without further immobilisation of tTG. After a maximum of 20-minute incubation (to minimise the effect of any endogenous secreted proteins) at 37° C. in a 5% CO2 atmosphere, cells were fixed in 3.7% (w/v) paraformaldehyde in PBS pH 7.4, permeabilised in 0.1% (v/v) Triton X-100 and stained with May Grunwald and Giemsa stain (Jones et al 1997, Verderio et al. 2000). In some cases cells were pre-treated for 15 hours with 1 mM cycloheximide before plating to rule out any effects of endogenous secreted adhesion molecules. Digital images of three non-overlapping fields covering the central portion of each well was captured using a video digital camera (Olympus DP10) and examined using the Image Analysis programme Scion Image (National Institute of Health, USA). A total of at least nine images of separate fields per sample were examined for a total of at least 900 cells in the FN control. The number of cell particles in each field was measured by thresholding and particle analysis setting a minimum particle size of 50 pixels. Spread cells were analysed and quantified by “density slicing” and particle analysis.
Adhesion of cells to FN was decreased by pre-incubation with RGD synthetic peptide (50 μg/ml, ˜75 ∝M, 100 μg/ml ˜150 μM, or 200 μg/ml ˜300 μM) or function blocking anti-integrin antibodies 40 μg/ml anti-β1 integrin (JB1A), 30 μg/ml anti-α5 integrin (P1D6). Detached cells (as described above) were pre-incubated in suspension (2×10^5cells/ml) in serum-free medium containing either RGD peptide or anti-integrins antibodies at 37° C. for 10 minutes in 5% CO2 atmosphere, and then seeded in the presence of the peptides.

[2] = tested on: tTG-null mouse dermal fibroblasts (MDF-TG−/−); assay: Cell viability (XTT) assay; type: cell-based; details: RGD peptide ~15 hours
Experimental: (§1) For fluorochrome labelling of DNA strand breaks, 6×10^5 cells were seeded in duplicate in 9.6 cm^2-wells pre-coated with FN or tTG-FN in the presence or absence of RGD peptide. After 15-hour incubation at 37° C. in a 5% CO2 atmosphere, all cells (adhered and non-adhered) were collected, washed twice in PBS pH 7.4, resuspended at the final concentration of 1.2×10^7 cells/ml and fixed in suspension by addition of one volume of 4% (w/v) PFM in PBS, pH 7.4 for 1 hour at room temperature. […] The fluorescence intensity measured by flow cytometry using a Beckman Coulter EPICS XL. Cells were collected and data stored using the SYSTEM II software and analysed using the WinMDI2.8 software. DNA fragmentation was also detected by in situ analysis of nuclei following TUNEL using a confocal fluorescent microscope (Leica). […] For quantification, the Leica LCS software was used to acquire three random images per well for a total of 9 images per experimental sample using a fixed protocol (with constant PMT and section-depth setting). Data are expressed as mean number of apoptotic cells per well. […] Data are expressed as absorbance values at 492 nm after subtraction of values at […] given by the unmetabolised salt.

HOB cells [3] = type: cell-based, human; details: FN+RGD
[4] = tested on: BRIN-BD11 (clonal β-cells); assay: Cell attachment and spreading of BRIN-BD11 cells; type: cell-based, rat; details: excess RGD peptide
Experimental: A novel insulin-secreting cell line (BRIN-BD11), which was established after electrofusion of RINm5F cells with New England Deaconess Hospital rat pancreatic islet cells, was grown confluent in RPMI 1640 media, supplemented with 10% FCS, 200 u/ml Penicillin, 200 ug/ml Streptomycin and L-Glutamine at 2 mM. The wells of microtitre plates were coated with FN (5 μg/ml) overnight at 4° C. The assigned wells were washed once with 50 mM Tris-HCl, pH 7.4 and then incubated with 20 μg/ml tTG solution (dissolved in PBS containing 2 mM EDTA pH 7.4) for 1 hour at 37° C. Meanwhile, exponentially growing cells were trypsinised and collected into medium containing approximately 7% (v/v) foetal calf serum. After a five-minute centrifugation at 300×g the cell pellet was washed twice in serum free medium to remove the traces of serum proteins. […] The cell attachment and spreading were quantified using the Scion image analysis programme, which is developed at the National Institute of Health (Washington DC, USA). The number of cells per image was assessed through threshold and particle analysis settings with a minimum particle size of 50 pixels. […] These were quantified by density slicing and particle analysis settings. […]

FAK = FAK tyrosine phosphorylation (western blot, phospho(Tyr397)-FAK); type: cell-based, human; details: HOB; RGD peptide (100 μg/ml)
Experimental: A cell suspension of 2×10^5 cells/ml was seeded in 9.6 cm^2-wells (6×10^5 cells/well) pre-coated with FN, tTG-FN or heat-inactivated 3% BSA (w/v) in PBS pH 7.4. After 30-minute incubation at 37° C. in a 5% CO2 atmosphere, the supernatant medium was removed, and non-adhered cells collected by spinning at 270 g for 5 minutes and then lysed in reducing Laemmli sample buffer at 95° C. for 5 minutes. The layer of adhered cells was scraped and similarly lysed (200 μl/well). The lysates of adhered and non-adherent cells were pooled together, fractionated (¼ aliquot) on 8% SDS-PAGE and then western blotted. Blots were incubated with a polyclonal rabbit anti-human phospho(Tyr 397)-FAK (1/2000), for ˜15 hours at +4° C. followed by anti-rabbit IgG peroxidase-conjugate (1/2000) for 2 hours at 21° C. Bands were detected by chemi-luminescence (Amersham), following manufacturer instructions. For re-probing with a control antibody, blots were treated with stripping buffer [50 mM Tris.HCl pH 6.7, 100 mM βME, 2% SDS (w/v)] for 30 minutes at 50° C. and then incubated with a monoclonal anti-tubulin antibody (1/2000), followed by peroxidase-conjugate anti-mouse IgGs/(1/1000).

[5] = tested on: tTG-null mouse dermal fibroblasts (MDF-TG−/−); assay: Anoikis quantification by TUNEL (flow cytometry and in situ microscopy); type: cell-based; details: RGD peptide, ~15-hour, flow cytometry
Experimental: as §1

GRGDTP [RGD peptide, GRGDTP]
cell attachment on FN (Swiss 3T3 fibroblasts): 30-40 % of controls
cell spreading on FN (Swiss 3T3 fibroblasts): 30-40 % of controls
cell spreading on FN (HOB cells [1]; 100 μg/ml RGD peptide): 10-50 % of control value
cell attachment on FN (HOB cells [1]; 50 and 100 μg/ml RGD peptides): 30-50 % of control values on FN
inhibition of cell attachment on the 70 kd fragment (HOB cells [1]; RGD peptide (100 μg/ml)): ~40%
inhibition of cell spreading on the 70 kd fragment (HOB cells [1]; RGD peptide (100 μg/ml)): ~40%
decrease of cell viability on FN versus control RAD peptide [2]: around 20%
actin stress fibre organisation on FN (HOB cells [3]): actin was not organised into stress fibres
cell attachment and spreading on FN [4]: decreased
tyrosine phosphorylation of FAK on FN (FAK): ~25 % of level in control cells on
apoptotic cells among total fibroblasts grown on FN [5]: ~24%
